# Where a SMILES comes first, the peptide text is derived from it. Bridges are numbered along the chain shown (N, C = ends). Roman numbers before positions name the chains, in order. [ ]: non-standard residue; d: D form. Thr(ol) = C[C@@H](O)[C@H](N)CO; Pen = CC(C)(S)[C@H](N)C(=O)O; Tle = CC(C)(C)[C@H](N)C(=O)O; Hiv = CC(C)[C@H](O)C(=O)O; dDab = NCC[C@@H](N)C(=O)O; hSer = N[C@@H](CCO)C(=O)O; Dab = NCC[C@H](N)C(=O)O; Dap = NC[C@H](N)C(=O)O
# Key:
# Format in all cases: cell-based
# [1] = tested on: Acinetobacter baumannii 872842; details: 872842
# How it was run: (§1)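 Peptides are tested in serial two-fold dilutions against about 10^6 CFU/mL in MH-II broth containing 0.002% P-80 (v/v, final). Plates incubate 18-20 h at 35° C, and the MIC is the lowest peptide level (μg/mL) showing no visible growth.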
# [2] = tested on: Klebsiella pneumoniae SSI #3010; details: SSI #3010
# How it was run: as §1
# [3] = tested on: Klebsiella pneumoniae 968733; details: 968733
# How it was run: as §1
# [4] = tested on: Acinetobacter baumannii DSM 30008; details: DSM 30008
# How it was run: as §1
# [5] = tested on: Enterobacter cloacae 848840; details: 848840
# How it was run: as §1
# [6] = tested on: Escherichia coli ATCC 25922; details: ATCC 25922
# How it was run: as §1
# [7] = tested on: Pseudomonas aeruginosa ATCC 27853; details: ATCC 27853
# How it was run: as §1
# [8] = tested on: Escherichia coli 926415; details: 926415
# How it was run: as §1
# [9] = tested on: human red blood cells (hRBC); assay: Hemolysis; details: red cells of human, 1 h, 200
# How it was run: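 hRBC washed 4× in PBS; 200 μg/mL peptide + 20% (v/v) hRBC, 1 h, 37° C, 300 rpm. Spin, supernatant ~7.5-fold diluted, OD540 blank corrected. % hemolysis = OD540 peptide / OD540 Triton X-100 × 100.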
SMILES,MIC [1],MIC [2],MIC [3],MIC [4],MIC [5],MIC [6],MIC [7],MIC [8],Hemolysis at 200 μg/mL [9],Klebsiella pneumoniae SSI #3010 MIC [2],Acinetobacter baumannii DSM 30008 MIC [4],Escherichia coli ATCC 25922 MIC [6],Pseudomonas aeruginosa ATCC 27853 MIC [7]
CC(=O)N[C@@H](CCN)C(=O)N[C@H](C(=O)N[C@H](C(=O)N[C@@H](Cc1ccc(O)cc1)C(=O)N[C@H]1CSSC[C@@H](C(=O)N[C@H](C(=O)N[C@@H](C)C(=O)N[C@@H](CO)C(N)=O)C(C)(C)C)NC(=O)[C@H](Cc2c[nH]c3ccccc23)NC(=O)[C@H](CO)NC(=O)[C@@H](CCN)NC(=O)[C@H](CCC(=O)N[C@@H](CCN)C(=O)N[C@H](C(=O)N[C@@H](CN)C(=O)N[C@H]2CCNC(=O)[C@H]([C@@H](C)O)NC(=O)[C@H](CCN)NC(=O)[C@H](CCN)NC(=O)[C@H](CC(C)C)NC(=O)[C@@H](CC(C)C)NC(=O)[C@H](CCN)NC2=O)[C@@H](C)O)NC1=O)[C@@H](C)O)C(C)C [Ex. 237] (I: Ac-[Dab]VTYCE[dDab]SWC[Tle]AS-NH2 / II: [Dab]T[Dap][Dab][Dab][dL]L[Dab][Dab]T; disulfide I:5-I:10; amide I:6-II:N; lactam II:4-II:C),0.125 µg/mL,0.0625 µg/mL,0.5 µg/mL,0.03125 µg/mL,0.125 µg/mL,0.0625 µg/mL,0.125 µg/mL,0.25 µg/mL,<1%,–,–,–,–
"CC(=O)N[C@H](C(=O)N[C@H]1CCNC(=O)C[C@@H](C(=O)N[C@@H](CO)C(N)=O)NC(=O)[C@H](C(C)C)NC(=O)[C@H](CO)NC(=O)[C@H](Cc2c[nH]c3ccccc23)NC(=O)CNC(=O)[C@@H](CCN)NC(=O)[C@H](CCC(=O)N[C@@H](CCN)C(=O)N[C@H](C(=O)N[C@@H](CN)C(=O)N[C@H]2CCNC(=O)[C@H]([C@@H](C)O)NC(=O)[C@H](CCN)NC(=O)[C@H](CCN)NC(=O)[C@H](CC(C)C)NC(=O)[C@@H](CC(C)C)NC(=O)[C@H](CCN)NC2=O)[C@@H](C)O)NC(=O)[C@H](CN)NC(=O)[C@H](Cc2ccc(O)cc2)NC1=O)C(C)C [Ex. 346] (I: Ac-V[Dab]Y[Dap]E[dDab]GWSVDS-NH2 / II: [Dab]T[Dap][Dab][Dab][dL]L[Dab][Dab]T; lactam I:2-I:11, II:4-II:C; amide I:5-II:N)",0.125 µg/mL,–,0.5 µg/mL,–,0.125 µg/mL,–,–,0.25 µg/mL,<1%,0.0625 µg/mL,0.0625 µg/mL,0.0625 µg/mL,0.125 µg/mL
CC(=O)N[C@H](C(=O)N[C@H]1CSSC[C@@H](C(=O)N[C@H](CO)[C@@H](C)O)NC(=O)[C@H](C(C)(C)C)NC(=O)[C@H](CO)NC(=O)[C@H](Cc2c[nH]c3ccccc23)NC(=O)[C@H](CO)NC(=O)[C@@H](CCN)NC(=O)[C@H](CCC(=O)N[C@@H](CCN)C(=O)N[C@H](C(=O)N[C@@H](CN)C(=O)N[C@H]2CCNC(=O)[C@H]([C@@H](C)O)NC(=O)[C@H](CCN)NC(=O)[C@H](CCN)NC(=O)[C@H](CC(C)C)NC(=O)[C@@H](CC(C)C)NC(=O)[C@H](CCN)NC2=O)[C@@H](C)O)NC(=O)[C@H](CN)NC(=O)[C@H](Cc2ccc(O)cc2)NC1=O)C(C)C [Ex. 123] (I: Ac-VCY[Dap]E[dDab]SWS[Tle]C[Thr(ol)] / II: [Dab]T[Dap][Dab][Dab][dL]L[Dab][Dab]T; disulfide I:2-I:11; amide I:5-II:N; lactam II:4-II:C),0.03125 µg/mL,0.0625 µg/mL,0.0625 µg/mL,0.01562 µg/mL,0.0625 µg/mL,0.01562 µg/mL,0.0625 µg/mL,0.03125 µg/mL,<1%,–,–,–,–
CC(C)C[C@@H]1NC(=O)[C@@H](CC(C)C)NC(=O)[C@H](CCN)NC(=O)[C@@H](NC(=O)[C@H](CN)NC(=O)[C@@H](NC(=O)[C@H](CCN)NC(=O)CC[C@@H]2NC(=O)[C@H](CCN)NC(=O)[C@H](Cc3ccc(O)cc3)NC(=O)[C@@H](NC(=O)[C@@H](O)C(C)C)CSSC(C)(C)[C@@H](C(=O)N[C@@H](CO)C(N)=O)NC(=O)[C@H](C(C)C)NC(=O)[C@H](CO)NC(=O)[C@H](Cc3c[nH]c4ccccc34)NC(=O)[C@H](CO)NC(=O)[C@@H](CCN)NC2=O)[C@@H](C)O)CCNC(=O)[C@H]([C@@H](C)O)NC(=O)[C@H](CCN)NC(=O)[C@H](CCN)NC1=O [Ex. 301] (I: H-[Hiv]CY[Dab]E[dDab]SWSV[Pen]S-NH2 / II: [Dab]T[Dap][Dab][Dab][dL]L[Dab][Dab]T; disulfide I:2-I:11; amide I:5-II:N; lactam II:4-II:C),0.25 µg/mL,–,0.5 µg/mL,–,0.125 µg/mL,–,–,0.125 µg/mL,2%,0.125 µg/mL,0.0625 µg/mL,0.0625 µg/mL,0.125 µg/mL
CC(C)C[C@@H]1NC(=O)[C@@H](CC(C)C)NC(=O)[C@H](CCN)NC(=O)[C@@H](NC(=O)[C@H](CCN)NC(=O)[C@@H](NC(=O)[C@H](CCN)NC(=O)CC[C@@H]2NC(=O)[C@H](CCN)NC(=O)[C@H](Cc3ccc(O)cc3)NC(=O)[C@@H](NC(=O)[C@@H](O)C(C)C)C(C)(C)SSC[C@@H](C(=O)N[C@H](CO)[C@@H](C)O)NC(=O)[C@H](C(C)(C)C)NC(=O)[C@H](CO)NC(=O)[C@H](Cc3c[nH]c4ccccc34)NC(=O)[C@H](CCO)NC(=O)[C@@H](CCN)NC2=O)[C@@H](C)O)CCNC(=O)[C@H]([C@@H](C)O)NC(=O)[C@H](CCN)NC(=O)[C@H](CCN)NC1=O [Ex. 84] (I: H-[Hiv][Pen]Y[Dab]E[dDab][hSer]WS[Tle]C[Thr(ol)] / II: [Dab]T[Dab][Dab][Dab][dL]L[Dab][Dab]T; disulfide I:2-I:11; amide I:5-II:N; lactam II:4-II:C),0.125 µg/mL,0.125 µg/mL,0.125 µg/mL,0.125 µg/mL,0.25 µg/mL,0.0625 µg/mL,0.25 µg/mL,0.125 µg/mL,<1%,–,–,–,–
"CC(C)C[C@@H]1NC(=O)[C@@H](CC(C)C)NC(=O)[C@H](CCN)NC(=O)[C@@H](NC(=O)[C@H](CCN)NC(=O)[C@@H](NC(=O)[C@H](CCN)NC(=O)CC[C@@H]2NC(=O)[C@H](CCN)NC(=O)[C@H](Cc3ccc(O)cc3)NC(=O)[C@@H](NC(=O)[C@@H](N)C(C)C)CC(=O)NCC[C@@H](C(=O)N[C@@H](CO)C(=O)O)NC(=O)[C@H](C(C)(C)C)NC(=O)[C@H](CO)NC(=O)[C@H](Cc3c[nH]c4ccccc34)NC(=O)[C@H]([C@@H](C)O)NC(=O)[C@@H](CCN)NC2=O)[C@@H](C)O)CCNC(=O)[C@H]([C@@H](C)O)NC(=O)[C@H](CCN)NC(=O)[C@H](CCN)NC1=O [Ex. 55] (I: H-VDY[Dab]E[dDab]TWS[Tle][Dab]S-OH / II: [Dab]T[Dab][Dab][Dab][dL]L[Dab][Dab]T; lactam I:2-I:11, II:4-II:C; amide I:5-II:N)",1 µg/mL,0.5 µg/mL,8 µg/mL,0.5 µg/mL,8 µg/mL,0.25 µg/mL,0.25 µg/mL,1 µg/mL,2%,–,–,–,–
